Test results published in ChEMBL document CHEMBL5131445, “Optimization of a novel piperazinone series as potent selective peripheral covalent BTK inhibitors” (Bioorg Med Chem Lett, 2022).
In brackets after ≈: the same amount, converted by molar mass.

Key:
[1] = molecular target: T1, Tyrosine-protein kinase BTK (Homo sapiens, UniProt Q06187); assay: Inhibition of pBTK in human whole blood; assay type: tissue-based
[2] = molecular target: T1, Tyrosine-protein kinase BTK; assay: Inhibition of BTK (unknown origin)
[3] = Plasma protein binding in human assessed as unbound fraction by rapid equilibrium dialysis method; assay type: ADME, cell-free
[4] = Solubility of the compound at pH 7; assay type: physicochemical; conditions: buffer
[5] = Inhibition of CD69 expression on CD19 positive B cells in anti-IgD stimulated human whole blood; assay type: functional, tissue-based; conditions: CD19 positive B cell
[6] = Metabolic stability in rat liver microsomes assessed as intrinsic clearance; assay type: ADME, Microsome; conditions: read-out: CLH
[7] = Metabolic stability in human liver microsomes assessed as intrinsic clearance; assay type: ADME, Microsome; conditions: read-out: CLH
[8] = molecular target: T2, Tyrosine-protein kinase TXK (Homo sapiens, UniProt P42681); assay: Binding affinity to TXK (unknown origin) assessed as dissociation constant by KINOMEscan analysis
T2 sequence (P42681 whole entry): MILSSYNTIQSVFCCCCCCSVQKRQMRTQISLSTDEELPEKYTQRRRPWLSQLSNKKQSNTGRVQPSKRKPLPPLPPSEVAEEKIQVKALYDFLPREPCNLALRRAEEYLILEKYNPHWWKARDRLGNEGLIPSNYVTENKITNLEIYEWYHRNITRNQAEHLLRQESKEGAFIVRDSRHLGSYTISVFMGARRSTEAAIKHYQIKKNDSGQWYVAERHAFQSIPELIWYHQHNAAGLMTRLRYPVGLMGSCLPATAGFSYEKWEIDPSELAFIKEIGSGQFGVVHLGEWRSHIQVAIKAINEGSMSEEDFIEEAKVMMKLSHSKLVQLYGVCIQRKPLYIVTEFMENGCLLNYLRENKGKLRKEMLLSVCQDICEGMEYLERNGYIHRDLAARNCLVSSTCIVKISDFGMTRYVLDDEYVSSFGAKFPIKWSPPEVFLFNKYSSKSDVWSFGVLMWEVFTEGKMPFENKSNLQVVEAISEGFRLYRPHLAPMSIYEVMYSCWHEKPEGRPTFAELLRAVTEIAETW

[9] = molecular target: Tyrosine-protein kinase Blk (Homo sapiens, UniProt P51451); assay: Binding affinity to BLK (unknown origin) assessed as dissociation constant by KINOMEscan analysis
[10] = Clearance in iv dosed Sprague-Dawley rat; assay type: ADME, organism-based; conditions: in vivo
[11] = Plasma protein binding in rat assessed as unbound fraction by rapid equilibrium dialysis method; assay type: ADME, cell-free
[12] = molecular target: Receptor tyrosine-protein kinase erbB-2 (Homo sapiens, UniProt P04626); assay: Binding affinity to ERBB2 (unknown origin) assessed as dissociation constant by KINOMEscan analysis
[13] = molecular target: T3, Tyrosine-protein kinase Tec (Homo sapiens, UniProt P42680); assay: Binding affinity to TEC (unknown origin) assessed as dissociation constant by KINOMEscan analysis
T3 sequence (P42680 whole entry): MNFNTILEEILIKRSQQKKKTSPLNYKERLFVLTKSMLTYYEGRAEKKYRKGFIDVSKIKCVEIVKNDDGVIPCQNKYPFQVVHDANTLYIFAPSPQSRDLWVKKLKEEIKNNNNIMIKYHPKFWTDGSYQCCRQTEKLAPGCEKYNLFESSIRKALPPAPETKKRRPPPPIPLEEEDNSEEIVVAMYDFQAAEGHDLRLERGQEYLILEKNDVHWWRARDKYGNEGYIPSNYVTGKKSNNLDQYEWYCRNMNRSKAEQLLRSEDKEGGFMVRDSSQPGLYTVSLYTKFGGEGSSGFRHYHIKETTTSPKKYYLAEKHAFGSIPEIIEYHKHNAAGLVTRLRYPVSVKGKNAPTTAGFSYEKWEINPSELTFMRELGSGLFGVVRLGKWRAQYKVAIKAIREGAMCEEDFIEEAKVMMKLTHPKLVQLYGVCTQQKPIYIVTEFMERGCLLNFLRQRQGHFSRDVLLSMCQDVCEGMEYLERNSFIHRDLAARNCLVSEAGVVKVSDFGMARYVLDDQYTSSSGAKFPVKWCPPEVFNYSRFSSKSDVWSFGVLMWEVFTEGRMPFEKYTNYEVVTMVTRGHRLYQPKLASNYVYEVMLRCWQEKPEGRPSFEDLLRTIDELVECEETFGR

T1 sequence (Q06187 whole entry): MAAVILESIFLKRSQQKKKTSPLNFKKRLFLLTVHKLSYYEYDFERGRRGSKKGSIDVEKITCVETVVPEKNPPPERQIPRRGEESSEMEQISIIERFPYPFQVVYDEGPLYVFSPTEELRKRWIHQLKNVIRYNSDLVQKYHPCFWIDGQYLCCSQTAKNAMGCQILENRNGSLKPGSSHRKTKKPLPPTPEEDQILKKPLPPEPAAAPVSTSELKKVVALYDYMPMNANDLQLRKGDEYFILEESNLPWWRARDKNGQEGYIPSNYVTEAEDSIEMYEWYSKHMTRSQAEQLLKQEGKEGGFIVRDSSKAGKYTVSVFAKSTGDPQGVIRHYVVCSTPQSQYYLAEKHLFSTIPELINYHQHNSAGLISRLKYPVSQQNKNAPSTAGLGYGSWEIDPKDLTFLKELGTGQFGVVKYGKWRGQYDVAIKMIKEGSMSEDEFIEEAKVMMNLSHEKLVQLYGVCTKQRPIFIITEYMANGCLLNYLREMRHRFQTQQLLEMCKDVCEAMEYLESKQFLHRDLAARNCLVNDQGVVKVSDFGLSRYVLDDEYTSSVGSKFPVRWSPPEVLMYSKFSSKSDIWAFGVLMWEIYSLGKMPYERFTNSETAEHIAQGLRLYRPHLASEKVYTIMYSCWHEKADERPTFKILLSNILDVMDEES
Chain of Tyrosine-protein kinase Blk (P51451 whole entry): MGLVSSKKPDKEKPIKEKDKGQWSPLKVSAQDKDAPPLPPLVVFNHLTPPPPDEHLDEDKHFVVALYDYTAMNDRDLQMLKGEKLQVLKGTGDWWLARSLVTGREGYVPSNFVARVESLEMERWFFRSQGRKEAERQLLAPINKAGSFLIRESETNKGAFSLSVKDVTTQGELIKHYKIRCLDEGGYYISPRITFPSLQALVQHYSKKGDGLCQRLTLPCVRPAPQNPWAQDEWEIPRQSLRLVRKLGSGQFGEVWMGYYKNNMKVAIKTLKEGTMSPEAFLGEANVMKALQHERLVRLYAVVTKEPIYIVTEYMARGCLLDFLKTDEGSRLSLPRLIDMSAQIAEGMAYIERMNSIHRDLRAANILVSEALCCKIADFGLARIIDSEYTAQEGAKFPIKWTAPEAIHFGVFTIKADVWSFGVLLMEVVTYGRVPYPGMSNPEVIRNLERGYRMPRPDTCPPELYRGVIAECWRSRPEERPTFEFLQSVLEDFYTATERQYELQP
Chain of Receptor tyrosine-protein kinase erbB-2 (P04626 whole entry): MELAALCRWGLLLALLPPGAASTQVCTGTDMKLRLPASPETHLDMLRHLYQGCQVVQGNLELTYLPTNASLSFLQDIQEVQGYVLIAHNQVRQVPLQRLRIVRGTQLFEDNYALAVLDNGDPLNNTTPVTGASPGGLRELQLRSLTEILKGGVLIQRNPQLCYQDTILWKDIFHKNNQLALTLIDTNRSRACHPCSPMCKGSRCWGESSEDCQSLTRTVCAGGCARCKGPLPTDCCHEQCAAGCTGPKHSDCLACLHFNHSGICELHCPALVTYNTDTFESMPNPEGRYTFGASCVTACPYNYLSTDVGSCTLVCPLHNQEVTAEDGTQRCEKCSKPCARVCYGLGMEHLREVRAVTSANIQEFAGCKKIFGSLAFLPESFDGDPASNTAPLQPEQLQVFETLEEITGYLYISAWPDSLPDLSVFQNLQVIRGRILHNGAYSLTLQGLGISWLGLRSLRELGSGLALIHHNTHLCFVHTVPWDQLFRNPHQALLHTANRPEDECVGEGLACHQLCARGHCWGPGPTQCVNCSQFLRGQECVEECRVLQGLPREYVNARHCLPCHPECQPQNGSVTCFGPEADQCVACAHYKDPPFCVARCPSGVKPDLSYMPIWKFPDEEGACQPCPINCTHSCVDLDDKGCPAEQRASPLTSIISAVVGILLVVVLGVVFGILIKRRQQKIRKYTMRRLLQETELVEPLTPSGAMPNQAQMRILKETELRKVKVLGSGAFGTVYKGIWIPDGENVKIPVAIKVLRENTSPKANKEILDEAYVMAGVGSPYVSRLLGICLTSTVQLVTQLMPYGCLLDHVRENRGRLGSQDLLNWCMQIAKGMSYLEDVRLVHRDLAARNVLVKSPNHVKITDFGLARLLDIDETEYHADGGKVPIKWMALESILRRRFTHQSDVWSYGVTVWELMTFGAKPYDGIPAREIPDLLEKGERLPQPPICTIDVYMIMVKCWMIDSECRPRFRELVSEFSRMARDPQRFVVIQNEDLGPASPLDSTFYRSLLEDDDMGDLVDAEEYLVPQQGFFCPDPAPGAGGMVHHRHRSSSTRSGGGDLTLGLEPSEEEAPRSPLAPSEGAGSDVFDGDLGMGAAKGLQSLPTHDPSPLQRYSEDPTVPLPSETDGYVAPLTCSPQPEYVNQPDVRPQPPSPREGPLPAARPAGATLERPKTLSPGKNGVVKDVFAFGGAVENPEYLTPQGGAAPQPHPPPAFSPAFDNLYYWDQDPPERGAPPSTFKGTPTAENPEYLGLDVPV

| SMILES | IC50 [2] [nM] | IC50 [5] [nM] | CLint scaled [6] [mL/min/kg] | CLint scaled [7] [mL/min/kg] | other results |
| --- | --- | --- | --- | --- | --- |
| CC(C)(C)CN1CCN(Cc2ccc(-c3ccnc(Nc4cnn(CCO)c4)n3)cc2C(F)(F)F)C(=O)C1 | 0.4 | – | – | – | IC50 [1]: 480 nM |
| C=CC(=O)N(C)CCOc1cncnc1-c1ccc(CN2CCN(CC(C)(C)C)CC2=O)c(C)c1 | 1.35 | 630 | 2500 | 1370 | fraction unbound [3]: 0.14; solubility [4]: 13 µg/mL (≈ 27.1 µM) |
| Cc1cc(-c2ccnc(Nc3cnn(C)c3)n2)ccc1CN1CCN(CC2CC(F)(F)C2)CC1=O | 28 | – | – | – | – |
| C=CC(=O)N(C)CCOc1cnccc1-c1ccc(CN2CCN(C)CC2=O)c(C)c1 | 315 | > 10000 | 620 | 95 | – |
| Cc1cc(-c2ccnc(Nc3cnn(C)c3)n2)ccc1CN1CCN(CC2CN(C)C2)CC1=O | 7300 | – | – | – | – |
| CC#CC(=O)N1CCC[C@H]1c1nc(-c2ccc(C(=O)Nc3ccccn3)cc2)c2c(N)nccn12 [ACALABRUTINIB] | – | – | – | – | Kd [8]: 24 nM; Kd [9]: 18 nM |
| CC(=O)N(C)CCOc1cncnc1-c1ccc(CN2CCN(CC(C)(C)C)CC2=O)c(C)c1 | 1720 | > 10000 | 1500 | 530 | fraction unbound [3]: 0.31 |
| C=CC(=O)N(C)CCOc1cnccc1-c1ccc(CN2CCN(C(C)C)CC2=O)c(C)c1 | 2.9 | 920 | 1240 | 135 | – |
| C=CC(=O)N(C)CCOc1c(N)ncnc1-c1cc(F)cc(NC(=O)c2ccc(C3CC3)cc2F)c1C [REMIBRUTINIB] | – | 36 | 97 | 80 | clearance [10]: 214 mL/min/kg; Kd [8]: 17000 nM; Kd [9]: 30000 nM |
| C=CC(=O)N(C)CCOc1cncnc1-c1ccc(CN2CCN(CC(C)(C)C)CC2=O)c(F)c1 | 0.44 | 300 | 3680 | 809 | – |
| Cc1cc(-c2ccnc(Nc3cnn(C)c3)n2)ccc1CN1CCN(CC(C)(C)C#N)CC1=O | 99 | – | – | – | – |
| C=CC(=O)N(C)CCOc1cnccc1-c1ccc(CN2CCN(CC(C)C)CC2=O)c(C)c1 | 0.65 | 160 | 2340 | 633 | – |
| CC(C)CN1CCN(Cc2ccc(-c3ccnc(Nc4cnn(CCO)c4)n3)cc2Cl)C(=O)C1 | 4 | – | – | – | IC50 [1]: 990 nM |
| Cc1cc(-c2ccnc(Nc3cnn(C)c3)n2)ccc1CN1CCN(CC(C)C)CC1=O | 3 | – | – | – | IC50 [1]: 310 nM |
| Cc1cc(-c2ccnc(Nc3cnn(C4CN(C)C4)c3)n2)ccc1CN1CCN(CC(C)C)CC1=O | 7 | – | – | – | IC50 [1]: 350 nM |
| C=CC(=O)N(C)CCOc1cnccc1-c1ccc(CN2CCN(CCC)CC2=O)c(C)c1 | 4.8 | 890 | 1540 | 286 | – |
| Cc1cc(-c2ccnc(Nc3cnn(C)c3)n2)ccc1CN1CCN(CC2CNC2)CC1=O | 4200 | – | – | – | – |
| C=CC(=O)N(C)CCOc1cncnc1-c1ccc(CN2CCN(CC(C)C)CC2=O)c(C)c1 | 0.83 | 130 | 2000 | 444 | fraction unbound [3]: 0.24; fraction unbound [11]: 0.07 |
| Cc1cc(-c2ccnc(Nc3cnn(C4CN(C)C4)c3)n2)ccc1CN1CCN(CC(C)(C)C)CC1=O | 7 | – | – | – | IC50 [1]: 2650 nM |
| Cc1cc(-c2ccnc(Nc3cnn(C)c3)n2)ccc1CN1CCN(CC2CN(O)C2)CC1=O | 80 | – | – | – | – |
| C=CC(=O)N(C)CCOc1cnccc1-c1ccc(CN2CCN(CC(C)(C)C)CC2=O)c(C)c1 | 0.44 | 300 | 3680 | 809 | fraction unbound [3]: 0.11; solubility [4]: 55 µg/mL (≈ 115 µM) |
| C=CC(=O)N(C)CCOc1cncnc1-c1ccc(CN2CCN(CC(C)(C)C)CC2=O)cc1 | 17 | 4700 | 930 | 270 | – |
| C=CC(=O)N(C)CCOc1cnccc1-c1ccc(CN2CCN(CC)CC2=O)c(C)c1 | 32 | 4410 | 591 | 113 | – |
| C=CC(=O)N1CCC([C@@H]2CCNc3c(C(N)=O)c(-c4ccc(Oc5ccccc5)cc4)nn32)CC1 [ZANUBRUTINIB] | – | – | – | – | Kd [8]: 980 nM; Kd [12]: 76 nM; Kd [13]: 18 nM |
| Cc1cc(-c2ccnc(Nc3cnn(CCO)c3)n2)ccc1CN1CCN(CC(C)C)CC1=O | 3 | – | – | – | IC50 [1]: 590 nM |

Continued by falling IC50 [2], values first:

| IC50 [2] [nM] | IC50 [5] [nM] | CLint scaled [6] [mL/min/kg] | CLint scaled [7] [mL/min/kg] | SMILES | other results |
| --- | --- | --- | --- | --- | --- |
| 520 | – | – | – | CCN1CCN(Cc2ccc(-c3ccnc(Nc4cnn(C)c4)n3)cc2C)C(=O)C1 | – |
| 268 | > 10000 | 308 | 81 | C=CC(=O)N(C)CCOc1cncnc1-c1ccc(CN2CCN(C3CCOC3)CC2=O)c(F)c1 (stereo not drawn) | – |
| 180 | – | – | – | Cc1cc(-c2ccnc(Nc3cnn(C)c3)n2)ccc1CN1CCN(CC2CCOC2)CC1=O (stereo not drawn) | – |
| 160 | – | – | – | Cc1cc(-c2ccnc(Nc3cnn(C)c3)n2)ccc1CN1CCN(CC(F)(F)F)CC1=O | – |
| 43 | – | – | – | Cc1cc(-c2ccnc(Nc3cnn(C)c3)n2)ccc1CN1CCN(C(C)(C)C)CC1=O | – |
| 12 | 1990 | 1110 | 316 | C=CC(=O)N(C)CCOc1cncnc1-c1ccc(CN2CCN(CC(F)(F)F)CC2=O)c(C)c1 | – |
| 11 | – | – | – | Cc1cc(-c2ccnc(Nc3cnn(C)c3)n2)ccc1CN1CCN(C2CCC2)CC1=O | – |
| 7 | – | – | – | Cc1cc(-c2ccnc(Nc3cnn(C)c3)n2)ccc1CN1CCN(CC2(C)CC2)CC1=O | – |
| 3 | – | – | – | Cc1cc(-c2ccnc(Nc3cnn(C)c3)n2)ccc1CN1CCN(CC2CCC2)CC1=O | IC50 [1]: 930 nM |
| 1.6 | 1080 | 1880 | 384 | C=CC(=O)N(C)CCOc1cncnc1-c1ccc(CN2CCN(CC3CCC3)CC2=O)c(C)c1 | – |
| 1.2 | 1080 | 2260 | 686 | C=CC(=O)N(C)CCOc1cnccc1-c1ccc(CN2CCN(CC3CCC3)CC2=O)c(C)c1 | – |
| 1 | – | – | – | CC(C)CN1CCN(Cc2ccc(-c3ccnc(Nc4cnn(CCO)c4)n3)cc2C(F)(F)F)C(=O)C1 | IC50 [1]: 120 nM |
| 1 | – | – | – | Cc1cc(-c2ccnc(Nc3cnn(CCO)c3)n2)ccc1CN1CCN(CC(C)(C)C)CC1=O | IC50 [1]: 810 nM |
| 1 | > 10000 | 493 | 228 | Cc1cc(-c2ccnc(Nc3cnn(C)c3)n2)ccc1CN1CCN(CC(C)(C)C)CC1=O | IC50 [1]: 1050 nM; fraction unbound [3]: 0.014; solubility [4]: 11 µg/mL (≈ 24.6 µM) |
| 0.98 | 130 | 2680 | 559 | C=CC(=O)N(C)CCOc1cncnc1-c1ccc(CN2CCN(CC3(C)CC3)CC2=O)c(C)c1 | – |
| 0.69 | 360 | 793 | 334 | C=CC(=O)N(C)CCOc1c(-c2ccc(CN3CCN(CC(C)C)CC3=O)c(C)c2)ccnc1N | fraction unbound [3]: 0.29 |
